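In this assay, cells in 96-well plates receive the compound at five concentrations for 48 hours. Endpoints are linearly interpolated between the surrounding concentrations. Here, GI50 denotes the concentration required for 50% inhibition of growth. At the TGI there is no net growth.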
Columns and labels:
Assay in all cases: growth of human tumour cells (NCI), 48 h
A498 renal = system: A498 renal
ACHN renal = system: ACHN renal
BT-549 breast = system: BT-549 breast
DU-145 prostate = system: DU-145 prostate
NCI-H522 lung = system: NCI-H522 lung
OVCAR-5 ovarian = system: OVCAR-5 ovarian
SK-MEL-28 melanoma = system: SK-MEL-28 melanoma
SK-MEL-5 melanoma = system: SK-MEL-5 melanoma
SNB-75 CNS = system: SNB-75 CNS
SR leukemia = system: SR leukemia

| Compound | TGI (A498 renal) [µM] | TGI (ACHN renal) [µM] | TGI (BT-549 breast) [µM] | TGI (DU-145 prostate) [µM] | TGI (NCI-H522 lung) [µM] | TGI (OVCAR-5 ovarian) [µM] | TGI (SK-MEL-28 melanoma) [µM] | TGI (SK-MEL-5 melanoma) [µM] | TGI (SNB-75 CNS) [µM] | TGI (SR leukemia) [µM] | GI50 (A498 renal) [µM] | GI50 (ACHN renal) [µM] | GI50 (BT-549 breast) [µM] | GI50 (DU-145 prostate) [µM] | GI50 (NCI-H522 lung) [µM] | GI50 (OVCAR-5 ovarian) [µM] | GI50 (SK-MEL-28 melanoma) [µM] | GI50 (SK-MEL-5 melanoma) [µM] | GI50 (SNB-75 CNS) [µM] | GI50 (SR leukemia) [µM] |
| --- | --- | --- | --- | --- | --- | --- | --- | --- | --- | --- | --- | --- | --- | --- | --- | --- | --- | --- | --- | --- |
| c1csc(-c2cc(-c3cccs3)c(-c3cccs3)s2)c1 | > 100 | > 100 | > 100 | > 100 | > 100 | > 100 | > 100 | > 100 | > 100 | > 100 |  |  |  |  |  |  |  |  |  |  |
| C[C@@H](CO)[C@@H]1CCC=C2CC[C@]3(C)[C@H](CC[C@@H]4[C@@]5(C)CCCNC(C)(C)[C@@H]5CC[C@]43C)[C@H]21 | 23 | 6.52 | 24.9 | 11.3 | 3.86 | 12.6 | 3.45 | 3.18 | 17.2 | > 100 | 5.41 | 2.45 | 5.11 | 3.36 | 1.85 | 3.18 | 1.72 | 1.77 | 2.19 | 5.44 |
| COc1cc2c(cc1C)NC(=O)/C2=C\c1cccc(Oc2ccccc2)c1 | 22.5 | 31 | 27.9 | 27 | 34.4 | 32.4 | 34.9 | 23.8 | 49.6 | 31.4 | 10.5 | 17.3 | 12.8 | 13.5 | 13.5 | 17 | 18.1 | 11.6 | 25 | 5.68 |
| COc1cc(Nc2ccnc(NCCCNc3ccnc4cc(Cl)ccc34)n2)cc(OC)c1 | 2.81 | 3.53 | 4.42 | 12.2 | 3.78 | 6 | 3.09 | 2.84 | 2.58 | 2.08 | 1 | 1.8 | 1.79 | 3.62 | 1.8 | 2.01 | 1.66 | 1.51 | 1.31 | 0.423 |
| CCN(C(=O)c1cc(F)ccc1Oc1cncnc1N1CC2(CCN(CC3CCC(NS(=O)(=O)CC)CC3)CC2)C1)C(C)C (stereo not given) | > 100 | > 100 | > 100 | > 100 | > 100 | > 100 | > 100 | > 100 | > 100 | > 100 | > 100 | > 100 | > 100 | > 100 | > 100 | > 100 | > 100 | > 100 | > 100 | > 100 |
| Nc1nc(-c2ccccc2)nc(N)c1N=O | 30.6 | 14.1 | 19.1 | 21.6 | 7.27 | 26.8 | 30.6 | 20.8 | 19.1 | 54.9 | 15.6 | 4 | 6.44 | 9.5 | 2.27 | 13.7 | 11.9 | 8.21 | 5.21 | 3.63 |

From PubChem BioAssay (NCI)
